Several values for one entry are separate records, joined by “and”; a condition that tells them apart may be missing. Equal values may be shown once.
How the values were obtained:
[1] = test system: rabbit paracentesis model; experiment: Pupillary diameter measurement, rabbit paracentesis model; type: in vivo; conditions: individual eye; for Pupillary diameter T1: −180 min: 50 μl drops, basal; for Pupillary diameter T2: −5 min: 5 min before first paracentesis; for Pupillary diameter T3: +115 min: 5 min before second paracentesis; for Pupillary diameter Δ(T3 − T1): +115 min minus −180 min
Method: Each rabbit was placed in a restraint device and tagged with the alphanumeric code. The formulations were instilled (50 μl) into the conjunctival sac of both eyes 180, 120, 90 and 30 min before the first paracentesis; then 15, 30, 90 min after the first paracentesis. To perform the first paracentesis the animals were anaesthetized by intravenous injection of 5 mg/kg Zoletil® (Virbac; 2.5 mg/kg tiletamine HCl and 2.5 mg/kg zolazepam HCl) and one drop of local anesthetic (Novesina®, Novartis) was administered to the eye. Anterior chamber paracentesis was performed with a 26 G needle attached to a tuberculin syringe; the needle was introduced into the anterior chamber through the cornea, taking care not to damage the tissues. Two hours after the first paracentesis, the animals were sacrificed with 0.4 ml Tanax® (Intervet International B.V.) and the second paracentesis was performed. About 100 μl of aqueous humor were removed at the second paracentesis. Aqueous humor was immediately split in four aliquots and stored at −80° C. until analysis. Then both eyes were enucleated and the iris-ciliary body was carefully excised, placed in polypropylene tubes, and stored at −80° C. until analysis.
The pupillary diameter of both eyes was measured with a Castroviejo caliper 180 min and 5 min before the first paracentesis and 5 min before the second paracentesis.

[2] = test system: human corneal epithelial cells (HCECs); experiment: IL-1β-stimulated cytokine production in primary human corneal epithelial cells (30-cytokine Luminex kit); conditions: IL-1β-stimulated HCECs, 18 h
Method: Primary HCECs were seeded in 24-well plates. […] Each treatment was performed in triplicate. Media were collected and used for determination of cytokine content using a 30-cytokine Luminex kit.
Median fluorescence intensity (WI) was used to obtain the concentration of each cytokines in pg/ml based on the standard curve of each cytokine assayed by Luminex. The linear range of the standard curve for each cytokine was used for determination of cytokine concentration. Duplicate values for each sample were averaged. Data were expressed as mean±SD. Statistical analysis was performed using one-way ANOVA-Dunnett's test, and P<0.05 was considered statistically significant.

[3] = 0.1% topical formulation, listed as BOL
[4] = 0.5% topical formulation, listed as BOL
[5] = 1% topical formulation, listed as BOL

| Structure (SMILES) | Pupillary diameter T1: −180 min ([1]; 0.1% topical formulation) | Pupillary diameter T2: −5 min ([1]; 0.1% topical formulation) | Pupillary diameter T3: +115 min ([1]; 0.1% topical formulation) | Pupillary diameter Δ(T3 − T1) ([1]; 0.1% topical formulation) | Pupillary diameter T1: −180 min [1, 3] | Pupillary diameter T2: −5 min [1, 3] | Pupillary diameter T3: +115 min [1, 3] | Pupillary diameter Δ(T3 − T1) [1, 3] | Pupillary diameter T1: −180 min [1, 4] | Pupillary diameter T2: −5 min [1, 4] | Pupillary diameter T3: +115 min [1, 4] | Pupillary diameter Δ(T3 − T1) [1, 4] | Pupillary diameter T1: −180 min [1, 5] | Pupillary diameter T2: −5 min [1, 5] | Pupillary diameter T3: +115 min [1, 5] | Pupillary diameter Δ(T3 − T1) [1, 5] | Potency of inhibition of IL-1β-stimulated production of GM-CSF, IL-8, and RANTES relative to dexamethasone [2] | Inhibition of IL-1β-stimulated cytokine production on 6 cytokines (IL-6, IL-7, MCP-1, TGF-α, TNF-α and VEGF) ([2]; comparable potency of both) |
| --- | --- | --- | --- | --- | --- | --- | --- | --- | --- | --- | --- | --- | --- | --- | --- | --- | --- | --- |
| C[C@@H]1C[C@H]2[C@@H]3CCC4=CC(=O)C=C[C@]4(C)[C@@]3(F)[C@@H](O)C[C@]2(C)[C@@]1(O)C(=O)CO [Dex, dexamethasone, reference compound] | 6.0 mm and 7.0 mm (2×) and 5.5 mm (2×) and 6.5 mm (3×) | 5.5 mm and 6.5 mm (3×) and 6.0 mm (2×) and 7.0 mm and 7.5 mm | 5.5 mm (3×) and 6.0 mm (2×) and 4.5 mm and 5.0 mm and 6.5 mm | −0.5 mm (3×) and −1.5 mm (2×) and 0.5 mm and 0.0 mm and −2.0 mm |  |  |  |  |  |  |  |  |  |  |  |  |  |  |
| Cc1ccc2c(NCC(O)(CC(C)(C)c3cc(F)cc4c3OCC4)C(F)(F)F)cccc2n1 (stereo not drawn) [BOL-303242-X] |  |  |  |  | 6.5 mm (4×) and 7.0 mm (3×) and 7.5 mm | 6.5 mm (3×) and 7.0 mm (4×) and 7.5 mm | 5.0 mm (2×) and 6.0 mm (3×) and 6.5 mm and 5.5 mm (2×) | −1.5 mm (4×) and −0.5 mm (2×) and −1.0 mm (2×) | 8.0 mm (3×) and 7.0 mm (3×) and 7.5 mm (2×) | 8.0 mm (3×) and 7.0 mm (4×) and 7.5 mm | 6.5 mm (4×) and 6.0 mm (2×) and 7.0 mm (2×) | −1.5 mm (2×) and −0.5 mm (2×) and −1.0 mm (4×) | 6.0 mm (3×) and 6.5 mm (5×) | 6.0 mm (2×) and 6.5 mm (4×) and 7.0 mm (2×) | 5.5 mm (2×) and 5.0 mm (4×) and 6.0 mm (2×) | −0.5 mm (3×) and −1.5 mm (2×) and −1.0 mm (3×) | less potency compared to dexamethasone | significantly inhibited |

Source: patent US20110077270A1, “Compositions and Methods for Treating Ocular Inflammation with Lower Risk of Increased Intraocular Pressure” (priority 2009, published 2011)
